Results: patent publication US5409898A, “Compositions and methods for treating infections caused by organisms sensitive to β-lactam antibiotics” (priority 1994, dated 1995)
In brackets after ≈: the same amount, converted by molar mass.

Key:
E. coli H16 [1] = assay: In vivo protection of neutropenic mice from systemic E. coli H16 infection (C-13 peptide analogs)
Excerpt: The ability of C-13 peptide analogs and cefepime combinations to protect mice from a lethal infection of E. coil was examined. Mice were made neutropenic by an injection of cyclophosphamide and then challenged with E. coli. Mice were then divided into four groups: (1) mice that were given PBS; (2) were given C-13 peptide analogs only; (3) were given cefepime only; and (4) were given a combination of C-13 peptide analogs and cefepime.
(§1) Male CrL:CF1 mice were made neutropenic five days prior to bacterial challenge. Neutropenia was induced by subcutaneous injection of 250 mg/kg Cytoxan (cyclophosphamide). The mice were challenged with either 2×10^4 E. coli H16 (Table 4) or 5×10^4 A645AP by intraperitoneal injection. Mice were divided into four treatment groups: (1) PBS; (2) C-13 peptide analog (15 mg/kg); (3) cefepime (0.1 mg/kg); (4) a combination treatment of cefepime and C-13 peptide analog (0.1 mg/kg cefepime and 15 mg/kg C-13 peptide analog) that were combined prior to injection. All injections were made in PBS (0.2 ml) and were administered intramuscularly with each injection in separate legs, one and 3.5 hours after bacterial challenge. The survival of the mice was monitored for ten days and the results analyzed by the Fisher Exact test.

E. coli H16 [2] = assay: In vivo protection of neutropenic mice from lethal E. coli H16 infection (magainin 2, C-13 peptide, cefepime, amikacin); settings: neutropenic mice, 2×10^4 E. coli H16 i.p.; two i.m. injections at 1 and 3.5 hr: 1 mg/mouse magainin 2, 0.1 mg/kg cefepime; at least 10 days
Method: The ability of magainin and cefepime combinations to protect mice from a lethal infection of E. coli was examined. Mice were made neutropenic by injection of Cytoxan and then challenged with E. coli. Mice were then divided into four different groups: (1) mice that were given no further treatment; (2) were given magainin 2 or C-13 peptide only; (3) were given cefepime only and (4) were given a combination of magainin 2 or C-13 peptide and cefepime. […] When amikacin, an aminoglycoside, was tested in similar experiments, no in vitro bactericidal activity or in vivo protection was found.
Mice were made neutropenic five days prior to bacterial challenge. Neutropenia was induced by subcutaneous injection of 250 mg/kg Cytoxan (cyclophosphamide). The mice were challenged with 2×10^4 E. coli H16. Challenge was by intraperitoneal injection. […] The survival of the mice was monitored for a period of at least 10 days

M009 = assay: Determination of the minimum inhibitory concentration (MIC), M009; format: cell-based, Pseudomonas aeruginosa; settings: antibiotic resistant strain M009
Method: (§2) The MIC represents the lowest concentration of antimicrobial agent at which complete inhibition occurs. MIC's were determined by the microdilution plate dilution method using AMH (Manual of Clinical Microbiology, Fourth Edition, Lennette, E. H. Ed. in Chief, ASM. 1985. pps 972-977). At least three different determinations were performed with each antibiotic for each strain.
(§3) MIC's were determined by the microdilution plate dilution method using AMH (Manual of Clinical Microbiology, Fourth Edition, Lennette, E. H. Ed. in Chief, ASM. 1985. pps 972-977). At least three different determinations were performed with each antibiotic for each strain.

[3] = test system: non K1 E. coli strain A645AP; assay: In vivo protection of neutropenic mice challenged with E. coli A645AP; settings: neutropenic mice challenged with E. coli A645AP (5.0×10^4 organisms)
Method: as §1
C-13 peptide analog G was also examined in neutropenic mice challenged with the non K1 E. coli strain A645AP (5.0×10^4 organisms). When mice were examined for survival after bacterial challenge the following results were obtained: in group 1, where only PBS was administered 3 out of 20 mice survived; in group 2, where only G was administered, 0 out of 15 survived; in group 3 where cefepime was administered 3 out of 20 survived; and in group 4, where both G and cefepime were administered 8 out of 15 survived.

E. coli ATCC 25922 [4] = assay: Bactericidal assay in GVB++ buffer (magainin 2 / cefepime); format: cell-based, Escherichia coli; settings: cefepime alone (1/4 MIC)
Method: FIG. 1 illustrates magainin 2 killing of untreated and cefepime altered E. coli in buffer. […] Cells were diluted as described in Section 6.1.5 and added to tubes containing GVB^++ buffer, with or without cefepime, and varying concentrations of magainin 2 peptide (indicated on the X axis). […] After 180 minutes at 37° C., bacterial survival was determined by measuring the number of colony forming units (cfu) in each tube. Bacterial counts were determined in triplicate. For each magainin concentration: Log Kill=log10 cfu no magainin-log10 cfu containing magainin.
The total reaction mixture was 0.25 ml.

E. coli ATCC 25922 [5] = assay: Serum bactericidal assay in 40% pooled normal human serum (magainin 2 with antibiotics); format: cell-based, Escherichia coli; settings: 1/32, 1/16, 1/8 MIC antibiotic; 200 μg/ml magainin 2; 40% pooled normal human serum
A645AP (pBR322) = assay: Determination of the minimum inhibitory concentration (MIC), A645AP (pBR322); format: cell-based; settings: Escherichia coli; antibiotic resistant strain A645AP (pBR322)
Method: as §2, §3

[6] = neutropenic mice, 2×10^4 E. coli H16 i.p., peptide 15 mg/kg, cefepime 0.1 mg/kg i.m. at one and 3.5 hours, ten days

CO/N=C(\C(=O)N[C@@H]1C(=O)N2C(C(=O)[O-])=C(C[N+]3(C)CCCC3)CS[C@H]12)c1csc(N)n1 [cefepime]
protection from systemic E. coli H16 infection (E. coli H16 [1]; Fisher Exact test): failed to provide a significant level of protection | % Survival (E. coli H16 [1]; [6]): 12% | Number--Survived/Total (E. coli H16 [1]; [6]): 3/25 | mice survived (out of total) (E. coli H16 [2]): 1 out of 20 | MIC (M009): 64 ug/MI | mice survived (out of total) [3]: 3 out of 20 | log10 kill (E. coli ATCC 25922 [4]): Less than 0.3 log10 | synergy of antibiotic with magainin 2 (E. coli ATCC 25922 [5]): synergistic | MIC (A645AP (pBR322)): 1 µg/mL (≈ 2.08 µM)
